From the supplement of paper PMC11451515

How the values were obtained:
Conditions in all cases: 48 h
[1] = system: SEM cells; experiment: AUC of viability dose-response curve (% viability x log10 dose units); higher = less sensitive
Method in brief: (§1)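 In 1536-well plates, leukemia cells adapted to each medium (500 or 1000 cells/well) were exposed for 48 h at 37°C to library compounds in DMSO across 11 threefold doses, 47 μM down to 0.79 nM. Viability was read by CellTiter-Glo One luminescence and normalised per plate to DMSO and cell-free wells. A four-parameter log-logistic fit over log10 doses was integrated by trapezoidal rule. This yielded the area under the curve, with over-full-viability curves scaled and quality-control failures dropped.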

[2] = system: NOMO1; experiment: as above
Method in brief: as §1

[3] = system: P12-Ichikawa; experiment: as above
Method in brief: as §1

[4] = system: SEM cells; experiment: cell viability relative to DMSO control; higher = less cytotoxic
Method in brief: (§2)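 In 1536-well plates, 5 μl of leukemia cells were seeded per well: 500 cells/well for NOMO1 or SEM and 1000 cells/well for P12-Ichikawa. Each line had first been adapted for at least four passages in each medium. Library compounds in DMSO were pin-dosed at 11 threefold concentrations between 47 μM and 0.79 nM, and CellTiter-Glo One luminescence was read after 48 h at 37°C. Viability is a per-plate percentage relative to DMSO wells, with cell-free wells as background.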

[5] = system: NOMO1; experiment: as above
Method in brief: as §2

[6] = system: P12-Ichikawa; experiment: as above
Method in brief: as §2

O=C([O-])[C@H](CC(=O)N1C[C@H]2CCCC[C@H]2C1)Cc1ccccc1
AUC of viability dose-response curve
Conditions | [1] | [2] | [3]
HPLM + 10% dialyzed FBS | 395 | 465 | 445
RPMI 5 mM glucose + 10% FBS | 418 | 440 | 442
RPMI 5 mM glucose + 10% dialyzed FBS | 374 | 448 | 471

cell viability [%]
Conditions | [4] | [5] | [6]
HPLM + 10% dialyzed FBS, 0.000781 µM | 79.8 | 116 | 107
HPLM + 10% dialyzed FBS, 0.00234 µM | 91.7 | 120 | 118
HPLM + 10% dialyzed FBS, 0.00702 µM | 88.2 | 135 | 120
HPLM + 10% dialyzed FBS, 0.0211 µM | 72.7 | 133 | 129
HPLM + 10% dialyzed FBS, 0.0632 µM | 107 | 138 | 123
HPLM + 10% dialyzed FBS, 0.19 µM | 109 | 123 | 125
HPLM + 10% dialyzed FBS, 0.569 µM | 103 | 128 | 125
HPLM + 10% dialyzed FBS, 1.71 µM | 106 | 145 | 119
HPLM + 10% dialyzed FBS, 5.12 µM | 119 | 134 | 131
HPLM + 10% dialyzed FBS, 15.4 µM | 125 | 156 | 130
HPLM + 10% dialyzed FBS, 46.1 µM | 121 | 122 | 134
RPMI 5 mM glucose + 10% FBS, 0.000781 µM | 93.8 | – | 114
RPMI 5 mM glucose + 10% FBS, 0.00234 µM | 110 | – | 129
RPMI 5 mM glucose + 10% FBS, 0.00702 µM | 105 | – | 122
RPMI 5 mM glucose + 10% FBS, 0.0211 µM | 87.7 | – | 129
RPMI 5 mM glucose + 10% FBS, 0.0632 µM | 102 | – | 134
RPMI 5 mM glucose + 10% FBS, 0.19 µM | 108 | – | 131
RPMI 5 mM glucose + 10% FBS, 0.569 µM | 106 | – | 131
RPMI 5 mM glucose + 10% FBS, 1.71 µM | 112 | – | 131
RPMI 5 mM glucose + 10% FBS, 5.12 µM | 117 | – | 137
RPMI 5 mM glucose + 10% FBS, 15.4 µM | 128 | – | 139
RPMI 5 mM glucose + 10% FBS, 46.1 µM | 119 | – | 142
RPMI 5 mM glucose + 10% dialyzed FBS, 0.000781 µM | 85.1 | – | 113
RPMI 5 mM glucose + 10% dialyzed FBS, 0.00234 µM | 103 | – | 122
RPMI 5 mM glucose + 10% dialyzed FBS, 0.00702 µM | 107 | – | 126
RPMI 5 mM glucose + 10% dialyzed FBS, 0.0211 µM | 65.5 | – | 134
RPMI 5 mM glucose + 10% dialyzed FBS, 0.0632 µM | 95.7 | – | 123
RPMI 5 mM glucose + 10% dialyzed FBS, 0.19 µM | 117 | – | 127
RPMI 5 mM glucose + 10% dialyzed FBS, 0.569 µM | 115 | – | 129
RPMI 5 mM glucose + 10% dialyzed FBS, 1.71 µM | 105 | – | 122
RPMI 5 mM glucose + 10% dialyzed FBS, 5.12 µM | 129 | – | 135
RPMI 5 mM glucose + 10% dialyzed FBS, 15.4 µM | 137 | – | 131
RPMI 5 mM glucose + 10% dialyzed FBS, 46.1 µM | 140 | – | 129

CCc1ccc(C(=O)Nc2cc(CN3CCN(C)CC3)cc(C(F)(F)F)c2)cc1C#Cc1cnc2ccnn2c1
AUC of viability dose-response curve
Conditions | [1] | [2] | [3]
HPLM + 10% dialyzed FBS | 449 | 459 | 459
RPMI 5 mM glucose + 10% FBS | 453 | 460 | 454
RPMI 5 mM glucose + 10% dialyzed FBS | 451 | 477 | 415

cell viability [%]
Conditions | [4] | [5] | [6]
HPLM + 10% dialyzed FBS, 0.000781 µM | 121 | 117 | 126
HPLM + 10% dialyzed FBS, 0.00234 µM | 113 | 113 | 118
HPLM + 10% dialyzed FBS, 0.00702 µM | 122 | 123 | 114
HPLM + 10% dialyzed FBS, 0.0211 µM | 126 | 118 | 121
HPLM + 10% dialyzed FBS, 0.0632 µM | 116 | 109 | 120
HPLM + 10% dialyzed FBS, 0.19 µM | 128 | 129 | 124
HPLM + 10% dialyzed FBS, 0.569 µM | 77.4 | 134 | 118
HPLM + 10% dialyzed FBS, 1.71 µM | 122 | 142 | 117
HPLM + 10% dialyzed FBS, 5.12 µM | 109 | 104 | 112
HPLM + 10% dialyzed FBS, 15.4 µM | 73.7 | 103 | 102
HPLM + 10% dialyzed FBS, 46.1 µM | 74.4 | 101 | 88.2
RPMI 5 mM glucose + 10% FBS, 0.000781 µM | 110 | 99.5 | 119
RPMI 5 mM glucose + 10% FBS, 0.00234 µM | 118 | 112 | 122
RPMI 5 mM glucose + 10% FBS, 0.00702 µM | 114 | 113 | 134
RPMI 5 mM glucose + 10% FBS, 0.0211 µM | 109 | 114 | 113
RPMI 5 mM glucose + 10% FBS, 0.0632 µM | 111 | 120 | 124
RPMI 5 mM glucose + 10% FBS, 0.19 µM | 106 | 110 | 116
RPMI 5 mM glucose + 10% FBS, 0.569 µM | 98.3 | 119 | 113
RPMI 5 mM glucose + 10% FBS, 1.71 µM | 116 | 116 | 123
RPMI 5 mM glucose + 10% FBS, 5.12 µM | 95.9 | 119 | 106
RPMI 5 mM glucose + 10% FBS, 15.4 µM | 94.1 | 128 | 102
RPMI 5 mM glucose + 10% FBS, 46.1 µM | 71.9 | 102 | 87.3
RPMI 5 mM glucose + 10% dialyzed FBS, 0.000781 µM | – | 115 | 130
RPMI 5 mM glucose + 10% dialyzed FBS, 0.00234 µM | – | 119 | 118
RPMI 5 mM glucose + 10% dialyzed FBS, 0.00702 µM | – | 107 | 121
RPMI 5 mM glucose + 10% dialyzed FBS, 0.0211 µM | – | 112 | 113
RPMI 5 mM glucose + 10% dialyzed FBS, 0.0632 µM | – | 120 | 111
RPMI 5 mM glucose + 10% dialyzed FBS, 0.19 µM | – | 114 | 119
RPMI 5 mM glucose + 10% dialyzed FBS, 0.569 µM | – | 125 | 107
RPMI 5 mM glucose + 10% dialyzed FBS, 1.71 µM | – | 119 | 108
RPMI 5 mM glucose + 10% dialyzed FBS, 5.12 µM | – | 120 | 104
RPMI 5 mM glucose + 10% dialyzed FBS, 15.4 µM | – | 107 | 99.1
RPMI 5 mM glucose + 10% dialyzed FBS, 46.1 µM | – | 113 | 83.8

CCCCOc1ccc(CC(=O)NO)cc1
AUC of viability dose-response curve
Conditions | [1] | [2] | [3]
HPLM + 10% dialyzed FBS | 440 | 417 | 464
RPMI 5 mM glucose + 10% FBS | 463 | 459 | 457
RPMI 5 mM glucose + 10% dialyzed FBS | 458 | 439 | 454

cell viability [%]
Conditions | [4] | [5] | [6]
HPLM + 10% dialyzed FBS, 0.000781 µM | 107 | 122 | 108
HPLM + 10% dialyzed FBS, 0.00234 µM | 115 | 124 | 108
HPLM + 10% dialyzed FBS, 0.00702 µM | 105 | 114 | 108
HPLM + 10% dialyzed FBS, 0.0211 µM | 125 | 121 | 110
HPLM + 10% dialyzed FBS, 0.0632 µM | 101 | 101 | 111
HPLM + 10% dialyzed FBS, 0.19 µM | 102 | 104 | 102
HPLM + 10% dialyzed FBS, 0.569 µM | 109 | 104 | 102
HPLM + 10% dialyzed FBS, 1.71 µM | 91.3 | 109 | 105
HPLM + 10% dialyzed FBS, 5.12 µM | 101 | 107 | 107
HPLM + 10% dialyzed FBS, 15.4 µM | 76.4 | 95.4 | 97.5
HPLM + 10% dialyzed FBS, 46.1 µM | 51.8 | 85.3 | 67.7
RPMI 5 mM glucose + 10% FBS, 0.000781 µM | 116 | 101 | 115
RPMI 5 mM glucose + 10% FBS, 0.00234 µM | 99.5 | 110 | 115
RPMI 5 mM glucose + 10% FBS, 0.00702 µM | 109 | 122 | 102
RPMI 5 mM glucose + 10% FBS, 0.0211 µM | 116 | 99.3 | 116
RPMI 5 mM glucose + 10% FBS, 0.0632 µM | 97 | 97.4 | 109
RPMI 5 mM glucose + 10% FBS, 0.19 µM | 113 | 118 | 111
RPMI 5 mM glucose + 10% FBS, 0.569 µM | 114 | 108 | 105
RPMI 5 mM glucose + 10% FBS, 1.71 µM | 104 | 108 | 101
RPMI 5 mM glucose + 10% FBS, 5.12 µM | 109 | 96.1 | 100
RPMI 5 mM glucose + 10% FBS, 15.4 µM | 108 | 97.2 | 96.4
RPMI 5 mM glucose + 10% FBS, 46.1 µM | 46.5 | 81.2 | 59.1
RPMI 5 mM glucose + 10% dialyzed FBS, 0.000781 µM | 107 | 107 | 114
RPMI 5 mM glucose + 10% dialyzed FBS, 0.00234 µM | 122 | 123 | 109
RPMI 5 mM glucose + 10% dialyzed FBS, 0.00702 µM | 108 | 116 | 113
RPMI 5 mM glucose + 10% dialyzed FBS, 0.0211 µM | 116 | 126 | 108
RPMI 5 mM glucose + 10% dialyzed FBS, 0.0632 µM | 98.7 | 109 | 110
RPMI 5 mM glucose + 10% dialyzed FBS, 0.19 µM | 115 | 111 | 104
RPMI 5 mM glucose + 10% dialyzed FBS, 0.569 µM | 109 | 109 | 108
RPMI 5 mM glucose + 10% dialyzed FBS, 1.71 µM | 113 | 103 | 106
RPMI 5 mM glucose + 10% dialyzed FBS, 5.12 µM | 107 | 95 | 98.3
RPMI 5 mM glucose + 10% dialyzed FBS, 15.4 µM | 102 | 94.7 | 92.4
RPMI 5 mM glucose + 10% dialyzed FBS, 46.1 µM | 39.9 | 86.9 | 59.2
